Here are results for 25 molecules from ChEMBL document CHEMBL1148887, “Design and synthesis of benzoazepinone-derived cyclic malonamides and aminoamides as potent gamma-secretase inhibitors” (Bioorg Med Chem Lett, 2007).

The term IC50 denotes the concentration that inhibits the measured activity by half. Broadly, the Ki is the dissociation constant of the complex between target and ligand, obtained from inhibition or displacement. Low readings indicate higher affinity, high ones lower affinity. Broadly, the fraction unbound is free concentration divided by total concentration. Lower therefore signals extensive binding. Broadly, the CL/F is clearance divided by bioavailability, as obtained after extravascular dosing. What is called half-life is how long it takes for the measured level to halve. As a reminder, the Cmax is the highest concentration seen after dosing. For orientation: bioavailability means the share of a dose that reaches the circulation, judged against a reference dose that is usually intravenous. High values mean good availability, low ones poor availability.

For data set [1], the target named is Gamma-secretase. Briefly: Inhibition of gamma secretase in APP-transfected CHO cells. Format: cell-based, Homo sapiens.
Data set [2] addresses Gamma-secretase. The data set is described as follows: Displacement of [3H]succinamide from gamma secretase in THP1 cell membranes. Further details: species or system Homo sapiens. As to conditions: thp-1. In general terms: Loss of bound radioactivity is the signal in a displacement assay; it reports binding, not function.
Data set [3] is described as follows: Fraction unbound ligand in Beagle dog at 0.5 mg/kg, po. Further details: dose 0.5 mg/kg, route oral. As to conditions: in vivo. Format: ADME, organism-based, Canis lupus familiaris.
Data set [4] in a line: Clearance in Beagle dog at 0.5 mg/kg, po. The note with it: in vivo. Format: ADME, organism-based, Canis lupus familiaris. Further details: dose 0.5 mg/kg, route oral.
For data set [5], the system named is Canis familiaris. Briefly: Volume of distribution at steady state in Beagle dog at 0.5 mg/kg, po. Format: ADME, organism-based, Canis lupus familiaris. Also noted: dose 0.5 mg/kg, route oral. As to conditions: in vivo.
A short description of data set [6]: Half life in Beagle dog at 0.5 mg/kg, po. Further details: dose 0.5 mg/kg, route oral. The note with it: in vivo. Format: ADME, organism-based, Canis lupus familiaris.
Data set [7] in a line: Cmax in Beagle dog at 0.5 mg/kg, po. Format: ADME, organism-based, Canis lupus familiaris. Also noted: dose 0.5 mg/kg, route oral. As to conditions: in vivo.
Data set [8] is described as follows: Oral bioavailability in Beagle dog at 0.5 mg/kg, po. Format: ADME, organism-based, Canis lupus familiaris. The note with it: in vivo.
Data set [9] deals with Gamma-secretase. Briefly: Inhibition of gamma secretase-mediated beta amyloid production in NIH3T3 cells. Format: cell-based, Homo sapiens.

Molecule `CN1C(=O)[C@@H](NC(=O)C2(C(=O)NCc3cc(F)cc(F)c3)CCC2)N=C(c2ccccc2)c2ccccc21` showed an IC50 in data set [1] of 115 nM. This molecule also yielded a Ki in data set [2] of 13.5 nM.

With `CC(C)CCNC(=O)C1(C(=O)N[C@H]2N=C(c3ccc(C(F)(F)F)cc3)c3ccccc3N(C)C2=O)CCC1`, the IC50 in data set [1] came to 14 nM. The molecule further gave an inhibition constant Ki in data set [2] of 4.9 nM. The fraction unbound in data set [3] amounted to 0.005. In addition, the CL/F in data set [4] was 3.33 mL/min/kg. Moreover, the Vdss in data set [5] was 1.9 L/kg. Moreover, in [6], the half-life was 13.2 h. In data set [7], this molecule had a Cmax of 567 nM. This molecule yielded a bioavailability in data set [8] of 61%.

In data set [1], `CCCCNC(=O)C1(C(=O)N[C@H]2N=C(c3ccccc3)c3ccccc3N(C)C2=O)CCC1` showed an IC50 of 20 nM. Also, the Ki in data set [2] was found to be 11 nM.

Molecule `CC(C)CCNC(=O)C1(C(=O)N[C@@H]2C(=O)N(C)c3ccccc3-c3ccccc32)CCC1` registered an IC50 in data set [1] of 15 nM. The molecule further gave a Ki in data set [2] of 4 nM. Moreover, the fraction unbound in [3] was 0.005. The molecule further gave a CL/F in data set [4] of 3.33 mL/min/kg. The Vdss in data set [5] worked out at 0.9 L/kg. Moreover, in data set [6], the half-life was 5.3 h. For the same molecule, in data set [7], the concentration peaked (Cmax) at 172 nM. Also, in data set [8], the bioavailability was determined as 23%.

Molecule `CC(C)CNC(=O)C1(C(=O)N[C@@H]2C(=O)N(C)c3ccccc3-c3ccccc32)CCC1` gave an IC50 in data set [1] of 5.8 nM. The Ki in data set [2] worked out at 1.4 nM. Also, in [3], the fraction unbound is 0.001. The molecule also gave a CL/F in data set [4] of 8.33 mL/min/kg. Also, the Vdss in data set [5] amounted to 2.1 L/kg. Moreover, the half-life in data set [6] is 4.6 h. In data set [7], this molecule gave a Cmax of 184 nM. Also, the bioavailability in data set [8] turned out to be 47%.

`CC(C)CNC(=O)C1(C(=O)N[C@H]2N=C(c3ccccc3)c3ccccc3N(C)C2=O)CCCC1`: in [1], the IC50 stood at 19.5 nM. Moreover, the affinity in data set [2], expressed as Ki, was 6.2 nM.

Molecule `CN1C(=O)[C@@H](NC(=O)C2(C(=O)NCCC3CCCC3)CCC2)N=C(c2ccc(C(F)(F)F)cc2)c2ccccc21` had an IC50 in data set [1] of 13 nM. The molecule also showed a Ki in data set [2] of 2.2 nM.

In turn, `CC(C)CC(F)(F)NC(=O)C1(C(=O)N[C@@H]2C(=O)N(C)c3ccccc3-c3ccccc32)CCC1` came in with an IC50 in data set [1] of 280 nM. Moreover, the Ki in data set [2] amounted to 22 nM.

Regarding `CC(C)[C@H](O)NC(=O)C1(C(=O)N[C@@H]2C(=O)N(C)c3ccccc3-c3ccccc32)CCC1`, in data set [1], the IC50 amounted to 15 nM. Also, in [2], the Ki turned out to be 3.9 nM.

In the case of `CC(C)C[C@H](O)NC(=O)C1(C(=O)N[C@H]2N=C(c3ccc(C(F)(F)F)cc3)c3ccccc3N(C)C2=O)CCC1`, the IC50 in [1] and in [9] was 6.1 nM throughout. Also, the affinity in [2] corresponds to a Ki of 2.1 nM. The same molecule returned a fraction unbound in [3] of 0.017. Moreover, in data set [4], the apparent clearance CL/F was 0.667 mL/min/kg. The Vdss in data set [5] was 0.2 L/kg. In [6], this molecule gave a half-life of 6.5 h. The Cmax in data set [7] came out at 2980 nM. In [8], this molecule returned a bioavailability of 84%.

As for `CC(C)C[C@H](O)NC(=O)C1(C(=O)N[C@@H]2C(=O)N(C)c3ccccc3-c3ccccc32)CCC1`, in data set [1], the IC50 is 4.2 nM. In data set [2], the affinity corresponds to a Ki of 0.9 nM.

Turning to `CN1C(=O)[C@@H](NC(=O)C2(C(=O)NCCC3CCCC3)CCCC2)N=C(c2ccccc2)c2ccccc21`, the Ki in data set [2] turned out to be 36 nM.

`CN1C(=O)[C@@H](NC(=O)C2(C(=O)NCc3cc(F)cc(F)c3)CCCC2)N=C(c2ccccc2)c2ccccc21` came in with an IC50 in data set [1] of 96 nM. For the same molecule, the affinity in [2] corresponds to a Ki of 9.9 nM.

As to `CN1C(=O)[C@@H](NC(=O)C2(C(=O)N[C@H](O)C3CCCCC3)CCC2)N=C(c2ccc(C(F)(F)F)cc2)c2ccccc21`, in data set [1], the IC50 is 280 nM. This molecule also registered a Ki in data set [2] of 111 nM.

In data set [1], `CN1C(=O)[C@@H](NC(=O)C2(C(=O)N[C@@H](O)C3CCCCC3)CCC2)N=C(c2ccc(C(F)(F)F)cc2)c2ccccc21` gave an IC50 of 11 nM. In [2], the Ki amounted to 3.1 nM.

Turning to `CN1C(=O)[C@@H](NC(=O)C2(C(=O)NCc3cccs3)CCCC2)N=C(c2ccccc2)c2ccccc21`, half-maximal inhibition in [1] (IC50) was put at 19 nM. This molecule gave a Ki in [2] of 41 nM.

`CCCNC(=O)C(CC)(CC)C(=O)N[C@H]1N=C(c2ccccc2)c2ccccc2N(C)C1=O`: the Ki in [2] stood at 227 nM.

On to `CC(C)[C@H](O)NC(=O)C1(C(=O)N[C@H]2N=C(c3ccc(C(F)(F)F)cc3)c3ccccc3N(C)C2=O)CCC1`, for which the IC50 in data set [1] came to 6.7 nM. Further, affinity in data set [2] was put at a Ki of 1.1 nM.

Turning to `CCCNC(=O)C1(C(=O)N[C@H]2N=C(c3ccccc3)c3ccccc3N(C)C2=O)CCC1`, it took 82 nM to reach half-maximal inhibition in data set [1] (IC50). Moreover, in data set [2], the Ki is 15 nM.

For `CC(C)CNC(=O)C1(C(=O)N[C@H]2N=C(c3ccc(C(F)(F)F)cc3)c3ccccc3N(C)C2=O)CCC1`, in data set [1], half-maximal inhibition (IC50) required 28 nM. The molecule also came in with a Ki in data set [2] of 1.2 nM.

The molecule `CC(C)CNC(=O)C1(C(=O)N[C@@H]2C(=O)N(C)c3ccccc3-c3ccccc32)CCCC1` returned an IC50 in data set [1] of 26.1 nM. The same molecule had a Ki in data set [2] of 3 nM.

For `CCNC(=O)C(CC)(CC)C(=O)N[C@H]1N=C(c2ccccc2)c2ccccc2N(C)C1=O`, affinity in data set [2] was put at a Ki of 1000 nM.

On to `CC(C)CNC(=O)C1(C(=O)N[C@H]2N=C(c3ccc(C(F)(F)F)cc3)c3ccccc3N(C)C2=O)CCCC1`, for which half-maximal inhibition in data set [1] (IC50) was put at 12.5 nM. The molecule also displayed an inhibitory constant (Ki) in [2] of 2 nM.

With `CC(C)CNC(=O)C1(C(=O)N[C@H]2N=C(c3ccccc3)c3ccccc3N(C)C2=O)CCC1`, 21 nM corresponded to half-maximal inhibition in [1] (IC50). Affinity in data set [2] was put at a Ki of 3.5 nM. This molecule also had a fraction unbound in [3] of 0.004. Also, the CL/F in [4] is 21.7 mL/min/kg. In [5], this molecule had a Vdss of 3.1 L/kg. In data set [6], the half-life is 5.3 h. Besides, the concentration in data set [7] peaked (Cmax) at 84 nM. Further, the bioavailability in data set [8] amounted to 42%.

`CN1C(=O)[C@@H](NC(=O)C2(C(=O)NCCC3CCCC3)CCC2)c2ccccc2-c2ccccc21`: the IC50 in data set [1] turned out to be 21 nM. Affinity in data set [2] was put at a Ki of 1.3 nM. In addition, the fraction unbound in data set [3] turned out to be 0.002. Also, in [4], the CL/F was 5 mL/min/kg. In addition, the Vdss in [5] amounted to 2.9 L/kg. In addition, in data set [6], the half-life is 13.4 h. Besides, the concentration in [7] peaked (Cmax) at 365 nM. This molecule returned a bioavailability in data set [8] of 71%.
